Here are results for three molecules from the NIST ThermoML archive (doi:10.1021/je040006u).

For series [1] the following is noted: 101.3 kPa, Liquid, Pycnometric method.
Series [2] is described as follows: xn = mol fraction of the nth substance listed. The settings on record: 101.3 kPa, Liquid, Pycnometric method, x1 = 1.

Numbers after ± are expanded uncertainties.

In the case of `COCCO` [2-methoxyethan-1-ol], the mass density – broadly, the mass of a sample divided by its volume – in series [1] (291.15 K) was determined as 966.52 ± 2.6 kg/m3; in series [1] (293.15 K), 964.88 ± 2.6 kg/m3; in series [1] (298.15 K), 960.29 ± 2.6 kg/m3; in series [1] (303.15 K) it was 955.76 ± 2.6 kg/m3; in series [1] (308.15 K) it was 951.1 ± 2.6 kg/m3.
For `COCCO` [2-methoxyethan-1-ol] + CCCNCCC, the mass density in series [2] (291.15 K) is reported as 966.52 ± 2.6 kg/m3; in series [2] (293.15 K) it was 964.88 ± 2.6 kg/m3; in series [2] (298.15 K), 960.29 ± 2.6 kg/m3; in series [2] (303.15 K) it was 955.76 ± 2.6 kg/m3; in series [2] (308.15 K), 951.1 ± 2.6 kg/m3.
In the case of `CCCNCCC` [dipropylamine], the mass density in series [1] (291.15 K) was 738.47 ± 2 kg/m3; in series [1] (293.15 K), 737.2 ± 2 kg/m3; in series [1] (298.15 K), 732.56 ± 2 kg/m3; in series [1] (303.15 K), 728.2 ± 2 kg/m3; in series [1] (308.15 K), 723.64 ± 2 kg/m3.
